# Records with an inconclusive call do not appear.
# System: M. tuberculosis H37Rv growth inhibition, 7H9 media
# Assay: M. tuberculosis growth inhibition, HTS (AID 449762);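 further: bacterial growth assessed after seven days of incubation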
# Conditions: not given
row,Compound,IC50 [µM]
1,CCC1(c2ccccc2)ON(c2c(Br)cccc2Br)C1=O (stereo not given),16.9
2,CCOC(=O)c1cnc(Nc2nc3ccccc3o2)nc1CSC(=S)N(CC)CC,20.5
3,COc1ccc(-n2cc(CNCCc3cscn3)c(-c3ccccc3Cl)n2)cc1,25.6
4,CCN(CC)C(=O)c1cc([N+](=O)[O-])cc2c1-c1ccc([N+](=O)[O-])cc1C2=C(C#N)C#N,21.3
5,COC(=O)c1cc(=O)n(-c2ccc(F)cc2)c(=Nc2ccc(F)cc2)s1,< 0.2
6,CCCCn1nc(C(=O)Nc2ccccc2N2CCCC2)c2ccccc2c1=O,11.8
7,Cc1cc2c(cc1C)/C(=N/NC(=O)c1ccccn1)CCC2,7.91
8,Cn1c(SCc2ccccc2)nc(N)c(N=O)c1=O,3.5
9,Cc1ccc(C(=O)Sc2cccccc2=O)cc1,0.96
10,Oc1cc(NCc2cccnc2)ccc1-c1nc2ccccc2o1,12.6
11,CCOC(=O)CSc1cc(=O)n(C)c2cc(Cl)ccc12,< 0.2
12,CCN(CC)C(=O)Oc1ccc2c(=O)c(-c3ccc(OC)cc3)coc2c1,28.5
13,COc1ccccc1C1CC(c2c(-c3ccccc3)c3cc(Cl)ccc3[nH]c2=O)=NN1S(C)(=O)=O (stereo not given),93.7
14,Cc1ccc(-n2nc(C)c3c(C)c(CCC(=O)Nc4ccc(CN5CCCC5)cc4)c(C)nc32)cc1,13.4
15,O=C(C1CCCN(c2ncnc3c2nc2n3CCCCC2)C1)N1CCN(c2ccc(Cl)cc2)CC1 (stereo not given),30.6
16,Cc1[nH]c2ccccc2c1/C=N/Nc1nc(Nc2ccccc2)nc(N2CCOCC2)n1,2.88
17,Cc1cc(-n2c(C)cc(C(=O)COc3ccc4ccc(=O)oc4c3)c2C)no1,68.6
18,CC1CC(C)(C)Nc2ccc(OC(=O)c3ccco3)cc21 (stereo not given),6.31
19,O=[N+]([O-])c1cccnc1N1CCC(c2cc(-c3cccc(C(F)(F)F)c3)n[nH]2)CC1,23.1
20,CCN(CC)CCN(C(=O)c1ccc(S(=O)(=O)N2CCCC2)cc1)c1nc2cc(C)cc(C)c2s1,10.1
21,Cc1ccc(-n2cc(CNCCn3nc(C)cc3C)c(-c3ccc(F)cc3)n2)cc1,3.48

row,Compound,IC50 [µM]
1,O=C(OCc1csc(Nc2ccccc2)n1)c1ccc(Cl)cc1,17.1
2,CCOc1cc(/C=C\[N+](=O)[O-])ccc1OCC(=O)Nc1ccccc1C,6.93
3,O=C(NC1CCCC(C(F)(F)F)C1)c1ccc([N+](=O)[O-])o1 (stereo not given),2.71
4,CCCN(CC1CC1)C(=O)COC(=O)c1ccc2c(c1)C(=O)N(c1ccc(OCC)cc1)C2=O,35.2
5,Cc1ccc(C)c(NC(CC(=O)c2ccccc2)C(=O)OCC(=O)c2cccs2)c1 (stereo not given),5.16
6,O=C(COC(=O)C1=COCCO1)Nc1cccc(Oc2ccccc2)c1,5.18
7,CC(C)=N/N=C1/NC(=O)C(Cc2ccccc2)S1 (stereo not given),23.4
8,CCOC(=O)c1ccc(N=Cc2nc3ccccc3n2C)cc1,63.5
9,Cn1c(-c2c(N)n(CCc3ccccc3)c3nc4ccccc4nc23)nc2ccccc21,7.64
10,CCCNC(=S)Nc1ccc(Nc2ccccc2)cc1,31.7
11,CCN1C(N(C)CCc2c[nH]c3ccccc23)=N[C@@H](c2cccc(C(F)(F)F)c2)C(C(=O)OC)=C1C,21.5
12,Cc1cc2nc(/N=C(\N)NC(=O)C(C)C)nc(C)c2cc1C,4.67
13,Cc1ccccc1-n1sc2cc(F)ccc2c1=O,18.6
14,Cc1ccc(C(=O)N/C(=C/c2ccc(-c3cc(C(F)(F)F)ccc3Cl)o2)C(=O)NCc2cccnc2)cc1,37.8
15,CCCc1cc(C(N)=S)ccn1,6.61
16,CN(C)c1ccc(CNc2nc(-c3ccccc3)nn2S(C)(=O)=O)cc1,12
17,C/C(Cl)=C\COc1cc(C)nc2c(Br)cccc12,19.7
18,Cc1ccc2[nH]c3c(N4CCN(Cc5ccccc5)CC4)ncnc3c2c1,22.3
19,CC1CCCC(NC(=O)NC(=O)CCl)C1C (stereo not given),3.25
20,C/C(=N/Nc1cc(-c2ccccc2)nc(-c2ccccc2)n1)c1ccc(O)cc1,9.45
21,Cc1ccc(S(=O)(=O)N2CCC(C(=O)OCc3ccccc3)CC2)cc1C,22.1

row,Compound,IC50 [µM]
1,O=c1c(C=NCCN2CCNCC2)c(O)n(C2CCCCC2)c(=O)n1C1CCCCC1,21
2,Cc1ccc(NC(=O)c2sccc2-n2cccc2)c(C)c1,28.2
3,O=C(OCC(=O)c1cccs1)C1=COCCO1,21.4
4,CCCOc1cccc(-c2nn(-c3ccccc3)cc2/C=C(\C#N)C(=O)NCCCn2ccnc2)c1,44.7
5,CC(C)(C)CC(C)(C)c1ccc(OCCOCC[N+](C)(C)Cc2ccccc2)cc1,26.2
6,COc1ccc(-n2nnnc2S(=O)(=O)CC(=O)N2CCCCC2)cc1,12.7
7,Cc1cc(-c2c(C)[nH]n(-c3ccccc3)c2=O)n[nH]1,5.54
8,COC(=O)c1c(NC(=O)CC2SC(N)=NC2=O)sc2c1CCC(C(C)(C)C)C2 (stereo not given),34.4
9,O=C(Nc1ccc(OC(F)(F)F)cc1)c1ccc2c(c1)no[n+]2[O-],< 0.2
10,CCn1c(SCC(=O)OC2CCCCC2)nc2ccccc2c1=O,21.7
11,CSCCCNC(=S)N1CCN(c2ccc(C(C)=O)cc2)CC1,24.8
12,O=C(Nc1ccc(N2CCN(C(=O)c3ccco3)CC2)cc1)C(c1ccccc1)c1ccccc1,12.1
13,CSc1ccc(CNC(=O)c2ccc(NC(=O)C3=CSCCO3)cc2)cc1,0.66
14,COCC(=O)O[C@]1(CCN(C)CCCc2nc3ccccc3[nH]2)CCc2cc(F)ccc2[C@@H]1C(C)C,32.2
15,CC1CCN(C(=S)NC(=O)c2cccs2)CC1,12.8
16,COc1ccc(C(CCN2CCCCC2)c2c(OC)cc(OC)c3c(-c4ccccc4)cc(=O)oc23)cc1 (stereo not given),15.1
17,O=C(OCn1nnc2ccccc2c1=O)C1CCCCC1,3.56
18,Cc1ccc(Cn2ccsc2=NC(=O)CCl)cc1,0.57
19,Cc1ccc(Nc2nc(N)c([N+](=O)[O-])c(N3CCCC(C)C3)n2)cc1C (stereo not given),99.9
20,CCCn1c(=N)n(CC(=O)c2ccc(OCC(=O)OC)cc2)c2ccccc21,11.1

# Same assay, conditions: measured here: IC90 growth inhibition
row,Compound,IC90 [µM]
1,CCC1(c2ccccc2)ON(c2c(Br)cccc2Br)C1=O (stereo not given),50.4
2,CCOC(=O)c1cnc(Nc2nc3ccccc3o2)nc1CSC(=S)N(CC)CC,25.4
3,COc1ccc(-n2cc(CNCCc3cscn3)c(-c3ccccc3Cl)n2)cc1,29.7
4,CCN(CC)C(=O)c1cc([N+](=O)[O-])cc2c1-c1ccc([N+](=O)[O-])cc1C2=C(C#N)C#N,23.8
5,COC(=O)c1cc(=O)n(-c2ccc(F)cc2)c(=Nc2ccc(F)cc2)s1,1.86
6,CCCCn1nc(C(=O)Nc2ccccc2N2CCCC2)c2ccccc2c1=O,> 100
7,Cc1cc2c(cc1C)/C(=N/NC(=O)c1ccccn1)CCC2,23.2
8,Cn1c(SCc2ccccc2)nc(N)c(N=O)c1=O,20.8
9,Cc1ccc(C(=O)Sc2cccccc2=O)cc1,2.48
10,Oc1cc(NCc2cccnc2)ccc1-c1nc2ccccc2o1,44.4
11,CCOC(=O)CSc1cc(=O)n(C)c2cc(Cl)ccc12,73.9
12,CCN(CC)C(=O)Oc1ccc2c(=O)c(-c3ccc(OC)cc3)coc2c1,> 100
13,COc1ccccc1C1CC(c2c(-c3ccccc3)c3cc(Cl)ccc3[nH]c2=O)=NN1S(C)(=O)=O (stereo not given),> 100
14,Cc1ccc(-n2nc(C)c3c(C)c(CCC(=O)Nc4ccc(CN5CCCC5)cc4)c(C)nc32)cc1,19.9
15,O=C(C1CCCN(c2ncnc3c2nc2n3CCCCC2)C1)N1CCN(c2ccc(Cl)cc2)CC1 (stereo not given),40.3
16,Cc1[nH]c2ccccc2c1/C=N/Nc1nc(Nc2ccccc2)nc(N2CCOCC2)n1,10
17,Cc1cc(-n2c(C)cc(C(=O)COc3ccc4ccc(=O)oc4c3)c2C)no1,> 100
18,CN(C(=O)COC(=O)/C=C/c1ccc(Cl)c(Cl)c1)c1c(N)n(Cc2ccccc2)c(=O)[nH]c1=O,> 100
19,CC1CC(C)(C)Nc2ccc(OC(=O)c3ccco3)cc21 (stereo not given),16.4
20,O=[N+]([O-])c1cccnc1N1CCC(c2cc(-c3cccc(C(F)(F)F)c3)n[nH]2)CC1,26.1
21,CCN(CC)CCN(C(=O)c1ccc(S(=O)(=O)N2CCCC2)cc1)c1nc2cc(C)cc(C)c2s1,13.2

row,Compound,IC90 [µM]
1,Cc1ccc(-n2cc(CNCCn3nc(C)cc3C)c(-c3ccc(F)cc3)n2)cc1,9.36
2,O=C(OCc1csc(Nc2ccccc2)n1)c1ccc(Cl)cc1,45.7
3,CCOc1cc(/C=C\[N+](=O)[O-])ccc1OCC(=O)Nc1ccccc1C,33.8
4,O=C(NC1CCCC(C(F)(F)F)C1)c1ccc([N+](=O)[O-])o1 (stereo not given),12.3
5,CCCN(CC1CC1)C(=O)COC(=O)c1ccc2c(c1)C(=O)N(c1ccc(OCC)cc1)C2=O,> 100
6,Cc1ccc(C)c(NC(CC(=O)c2ccccc2)C(=O)OCC(=O)c2cccs2)c1 (stereo not given),7.68
7,O=C(COC(=O)C1=COCCO1)Nc1cccc(Oc2ccccc2)c1,55.4
8,CC(C)=N/N=C1/NC(=O)C(Cc2ccccc2)S1 (stereo not given),25.9
9,CCOC(=O)c1ccc(N=Cc2nc3ccccc3n2C)cc1,> 100
10,Cn1c(-c2c(N)n(CCc3ccccc3)c3nc4ccccc4nc23)nc2ccccc21,> 100
11,CCCNC(=S)Nc1ccc(Nc2ccccc2)cc1,52
12,CCN1C(N(C)CCc2c[nH]c3ccccc23)=N[C@@H](c2cccc(C(F)(F)F)c2)C(C(=O)OC)=C1C,23.7
13,Cc1cc2nc(/N=C(\N)NC(=O)C(C)C)nc(C)c2cc1C,61.2
14,Cc1ccccc1-n1sc2cc(F)ccc2c1=O,22.5
15,Cc1ccc(C(=O)N/C(=C/c2ccc(-c3cc(C(F)(F)F)ccc3Cl)o2)C(=O)NCc2cccnc2)cc1,> 100
16,CCCc1cc(C(N)=S)ccn1,> 100
17,CN(C)c1ccc(CNc2nc(-c3ccccc3)nn2S(C)(=O)=O)cc1,13.8
18,C/C(Cl)=C\COc1cc(C)nc2c(Br)cccc12,25.1
19,Cc1ccc2[nH]c3c(N4CCN(Cc5ccccc5)CC4)ncnc3c2c1,42.6
20,CC1CCCC(NC(=O)NC(=O)CCl)C1C (stereo not given),7.38
21,C/C(=N/Nc1cc(-c2ccccc2)nc(-c2ccccc2)n1)c1ccc(O)cc1,13.8

row,Compound,IC90 [µM]
1,Cc1ccc(S(=O)(=O)N2CCC(C(=O)OCc3ccccc3)CC2)cc1C,40.6
2,O=c1c(C=NCCN2CCNCC2)c(O)n(C2CCCCC2)c(=O)n1C1CCCCC1,28.5
3,Cc1ccc(NC(=O)c2sccc2-n2cccc2)c(C)c1,82.9
4,O=C(OCC(=O)c1cccs1)C1=COCCO1,> 100
5,CCCOc1cccc(-c2nn(-c3ccccc3)cc2/C=C(\C#N)C(=O)NCCCn2ccnc2)c1,62.3
6,CC(C)(C)CC(C)(C)c1ccc(OCCOCC[N+](C)(C)Cc2ccccc2)cc1,30
7,COc1ccc(-n2nnnc2S(=O)(=O)CC(=O)N2CCCCC2)cc1,27
8,Cc1cc(-c2c(C)[nH]n(-c3ccccc3)c2=O)n[nH]1,25.5
9,COC(=O)c1c(NC(=O)CC2SC(N)=NC2=O)sc2c1CCC(C(C)(C)C)C2 (stereo not given),51.3
10,O=C(Nc1ccc(OC(F)(F)F)cc1)c1ccc2c(c1)no[n+]2[O-],0.2
11,CCn1c(SCC(=O)OC2CCCCC2)nc2ccccc2c1=O,37.7
12,CSCCCNC(=S)N1CCN(c2ccc(C(C)=O)cc2)CC1,44.1
13,O=C(Nc1ccc(N2CCN(C(=O)c3ccco3)CC2)cc1)C(c1ccccc1)c1ccccc1,22.6
14,CSc1ccc(CNC(=O)c2ccc(NC(=O)C3=CSCCO3)cc2)cc1,> 100
15,COCC(=O)O[C@]1(CCN(C)CCCc2nc3ccccc3[nH]2)CCc2cc(F)ccc2[C@@H]1C(C)C,42.6
16,CC1CCN(C(=S)NC(=O)c2cccs2)CC1,29
17,COc1ccc(C(CCN2CCCCC2)c2c(OC)cc(OC)c3c(-c4ccccc4)cc(=O)oc23)cc1 (stereo not given),22.4
18,O=C(OCn1nnc2ccccc2c1=O)C1CCCCC1,7.16
19,Cc1ccc(Cn2ccsc2=NC(=O)CCl)cc1,1.52
20,Cc1ccc(Nc2nc(N)c([N+](=O)[O-])c(N3CCCC(C)C3)n2)cc1C (stereo not given),> 100
21,CCCn1c(=N)n(CC(=O)c2ccc(OCC(=O)OC)cc2)c2ccccc21,43.6

# Reference: PubChem BioAssay AID449762 (Southern Research Specialized Biocontainment Screening …, 2010)
